We go through twelve molecules from paper PMC8196714, “Design, Radiosynthesis and Preliminary Biological Evaluation in Mice of a Brain-Penetrant ^18F-Labelled σ2 Receptor Ligand” (International Journal of Molecular Sciences, 2021).

Data set [1] addresses T1, σ2 receptor (Rattus norvegicus, UniProt Q5U3Y7).
T1 sequence (Q5U3Y7 1-176): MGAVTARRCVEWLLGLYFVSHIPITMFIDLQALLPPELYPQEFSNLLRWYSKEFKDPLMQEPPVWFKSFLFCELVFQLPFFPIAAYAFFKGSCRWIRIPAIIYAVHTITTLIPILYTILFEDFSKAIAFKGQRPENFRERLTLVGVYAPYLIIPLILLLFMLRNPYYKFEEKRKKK
The data set is described as follows: σ2 receptor affinity, inhibition of [3H]DTG binding in rat liver membrane homogenates. The arrangement: preparations of membrane homogenates obtained from rat liver; from tissue; host or cells: rat liver. The settings on record: for Ki: [3H]DTG, rat liver membrane homogenates. The method, then: Initially, we assessed the affinity of all derivatives towards the target protein and investigated the inhibition of the binding of [^3H]DTG in preparations of membrane homogenates obtained from rat liver, which is known to express high levels of σ2 receptors.
(§1) Binding affinity experiments to assess the Ki values of test compounds towards rat σ2 receptors, human σ1 receptors, and rat VAChT were performed according to protocols previously published by our group. The same protocol was used to determine the KD and Bmax values of RM273 towards σ2 receptors expressed in F98 cells by homologous competition analyzing the displacement of [^18F]RM273 by RM273.

Another data set addresses T2, rat VAChT (Rattus norvegicus, UniProt Q62666).
T2 construct: expressed in transfected cells; host or cells: PC12 cells
T2 sequence (Q62666 1-530): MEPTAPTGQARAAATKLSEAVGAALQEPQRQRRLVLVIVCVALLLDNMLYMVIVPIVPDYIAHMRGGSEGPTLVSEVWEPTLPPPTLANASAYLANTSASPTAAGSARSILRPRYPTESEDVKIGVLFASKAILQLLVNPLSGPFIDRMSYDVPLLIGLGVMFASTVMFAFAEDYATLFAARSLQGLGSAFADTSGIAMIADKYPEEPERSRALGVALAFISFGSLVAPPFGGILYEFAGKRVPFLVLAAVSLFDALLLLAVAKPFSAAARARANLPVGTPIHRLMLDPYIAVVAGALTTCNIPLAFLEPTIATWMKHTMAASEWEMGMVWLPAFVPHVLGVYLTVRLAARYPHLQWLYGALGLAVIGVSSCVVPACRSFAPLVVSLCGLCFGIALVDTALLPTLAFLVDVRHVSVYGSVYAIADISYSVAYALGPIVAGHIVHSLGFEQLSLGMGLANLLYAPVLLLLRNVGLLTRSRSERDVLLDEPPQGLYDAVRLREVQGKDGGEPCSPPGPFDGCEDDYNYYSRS
Nature of the data set: Displacement of [3H]vesamicol in membrane homogenates of PC12 cells stably expressing rat VAChT. The data set is classed as binding. As for the experimental part: Because ligands targeting σ receptors may be impaired by off-target binding towards the vesicular acetylcholine transporter (VAChT), we determined in the next step the affinity of RM273 towards this protein.
as §1

For another data set, the target named is guinea pig σ1 receptors (Cavia porcellus, UniProt Q60492). The data set is described as follows: σ1 receptor affinity, competitive binding with [3H]-(+)-pentazocine (WWU). The settings on record: determined at WWU. The source says:
To decide which of the nine compounds would be suitable for subsequent radiofluorination, we determined the affinity towards the σ1 receptor as the most relevant off-target protein. […] To finally select the best derivative for radiofluorination, we calculated the σ2:σ1 selectivity values and identified RM273 (41) as the most suitable one with a ratio of about 400.

A further data set concerns the target human σ1 receptors (Homo sapiens, UniProt Q99720). Nature of the data set: σ1 receptor affinity, competitive binding with [3H]-(+)-pentazocine (HZDR Leipzig). Conditions: determined at HZDR Leipzig. As for the experimental part:
To decide which of the nine compounds would be suitable for subsequent radiofluorination, we determined the affinity towards the σ1 receptor as the most relevant off-target protein.
as §1

The target in data set [2] is T1, σ2 receptor. Nature of the data set: In vitro autoradiography on rat brain cryosections (healthy and orthotopic F98 glioblastoma). The data set is classed as binding. The arrangement: from tissue; host or cells: rat brain cryosections (SPRD healthy; Fisher F344 with orthotopic F98 glioblastoma). Conditions: autoradiography, co-incubation with competitor at 10^−6 M. An excerpt: Initially, we investigated the binding of [^18F]RM273 on rat brain slices by autoradiography to compare the distribution pattern with that of established σ2 receptor ligands and to examine the target specificity. The highest binding was found in the cortical areas and hippocampal structures. […] Accordingly, we proceeded to investigate, in a rat glioblastoma model, the potential suitability of [^18F]RM273 for molecular characterization of cancer. At first, homologous competition studies using membrane homogenates of the rat glioma cell line F98 were performed to determine the σ2 receptor binding parameters of [^18F]RM273 cells (Figure 3).
We subsequently investigated the binding parameters of [^18F]RM273 by in vitro autoradiography using cryosections of rat brains obtained three weeks after stereotactic implantation of F98 rat glioblastoma cells into the left striatum. Initially, we performed a homologous displacement study to directly compare the binding sites of the new radioligand in a healthy brain and a brain tumor. The inhibition curves presented in Figure 3 indicate binding of [^18F]RM273 to single binding sites in both brain regions. […] Further supporting the assumption of a tumor-specific overexpression of σ2 receptors, a remarkably high density of binding sites of [^18F]RM273 in the F98 tumor tissue was observed (Figure 4). Compared to the healthy tissue (contralateral side), about three times more specific binding sites of [^18F]RM273 were estimated for the tumor region (32 × 10^−9 mol/L vs. 94 × 10^−9 mol/L at 1.5 nM [^18F]RM273).
In vitro autoradiography was performed using cryosections of brains of a healthy rat (SPRD, female, 250 g; Medizinisch-Experimentelles Zentrum, Universität Leipzig, Leipzig, Germany) and brains obtained from rats (Fisher F344/HanZtmRj, male, ≈260 g; Janvier Labs, Le Genest-Saint-Isle, France) 23 days after stereotactic implantation of 5 × 10^4 F98 cells in the […] striatum (n = 2).
Immediately after isolation, the brains were frozen by immersion in isopentane at −25 °C. Cryosections of 12 μm (Microm HM560 cryostat, Thermo Scientific, Schwerte, Germany) were mounted on microscopic glass slides, dried at room temperature, and stored at −25 °C. For the experiment, the slices were dried at room temperature under a stream of cold air before pre-incubation in PBS, pH 7.4, at room temperature for 15 min. […] Co-incubation with serial dilutions of RM273 (10^−10–10^−6 M) was performed to determine an inhibition curve. After 60 min, the incubation at room temperature was terminated by decanting and washing the slides by two consecutive incubations in ice-cold washing buffer (50 mM TRIS-HCl, pH 7.4 at 4 °C) for two min each, followed by dipping in ice-cold demineralized water for 5 sec and drying under a stream of cold air. In parallel, for subsequent quantification of the data obtained from the homologous competition experiment, defined volumes, and thus defined activities of the radioligand solution, were pipetted onto a microscopic glass slide (0.5–3 μL = 0.0355–0.213 kBq) and dried. Afterwards the tissue samples along with the standards were exposed to an ^18F-sensitive phosphor screen (ABC) for two hours. Image acquisition was performed using a phosphorimager (HD-CR 35; DÜRR NDT GmbH & Co. KG, Bietigheim-Bissingen, Germany). Analysis of the digitized images was performed by image analysis software (AIDA; Elysia-raytest GmbH, Straubenhardt, Germany).
Irregular regions of interest (ROI) were drawn on the standard spots and the different brain regions, which were confirmed by Nissl staining of the identical brain sections. Optical density measured in each ROI was expressed as quantum levels per unit area (QL/pixel) with a pixel size of 12.5 μm^2. From the calibration curve obtained from the standards by plotting QL vs. activity, the QL values of the ROIs were converted to activity values followed by conversion to chemical concentration of RM273 based on the molar activity of [^18F]RM273. […]

Details of data set [3]: method as in PMID 17579383. Conditions: 5 min p.i. ref 25; cited from earlier work.
Where [4] appears, read: Ki σ1 from guinea pig σ1 receptors.

Where only a bound is given, the exact number is not on record here.

human σ1 receptors, sequence (Q99720 whole entry): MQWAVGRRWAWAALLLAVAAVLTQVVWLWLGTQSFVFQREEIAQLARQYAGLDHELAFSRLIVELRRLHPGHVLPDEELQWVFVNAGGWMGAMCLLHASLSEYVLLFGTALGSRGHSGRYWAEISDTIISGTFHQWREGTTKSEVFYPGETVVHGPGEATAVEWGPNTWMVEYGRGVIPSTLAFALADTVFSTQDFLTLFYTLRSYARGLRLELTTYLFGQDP
guinea pig σ1 receptors, sequence (Q60492 whole entry): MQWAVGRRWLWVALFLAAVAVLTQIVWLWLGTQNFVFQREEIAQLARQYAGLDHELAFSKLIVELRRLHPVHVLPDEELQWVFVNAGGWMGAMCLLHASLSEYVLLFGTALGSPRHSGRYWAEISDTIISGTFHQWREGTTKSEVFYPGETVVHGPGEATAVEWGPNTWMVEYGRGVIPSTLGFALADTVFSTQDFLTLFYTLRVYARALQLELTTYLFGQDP

Regarding `COc1cc2c(cc1OC)CN(CCCCn1ccc3ccc(F)nc31)CC2` [41 (RM273), 2-(4-(6-Fluoro-1H-pyrrolo[2,3-b]pyridin-1-yl)butyl)-6,7-dimethoxy-1,2,3,4-tetrahydroisoquinoline], the “Selectivity (Ki σ1/Ki σ2)” value at σ2 receptor [1] (setting [4]) was 432; on σ2 receptor [1] (Ki σ1 from guinea pig σ1 receptors, listed as RM273 (41)), “about 400”. The Ki (usually a dissociation constant, usually derived from enzyme kinetics or from competition with a known ligand) on σ2 receptor [1] is 1.6 nM; at rat VAChT, over 2000 nM; on guinea pig σ1 receptors, 691 nM.

For the molecule `COc1cc2c(cc1OC)CN(CCCCn1ccc3ccnc(F)c31)CC2` [42 (RM297), 2-[4-(7-Fluor-1H-pyrrolo[2,3-c]pyridin-1-yl)butyl]-6,7-dimethoxy-1,2,3,4-tetrahydroisochinolin], the “Selectivity (Ki σ1/Ki σ2)” value on σ2 receptor [1] (setting [4]) turned out to be 339. In addition, the Ki at σ2 receptor [1] amounted to 2.7 nM; on guinea pig σ1 receptors, 916 nM.

Turning to `COc1cc2c(cc1OC)CN(CCCCn1ccc3c(F)cccc31)CC2` [Compound 34, 2-[4-(4-Fluoro-1H-indol-1-yl)butyl]-6,7-dimethoxy-1,2,3,4-tetrahydroisoquinoline], the “Selectivity (Ki σ1/Ki σ2)” value on σ2 receptor [1] (Ki σ1 from human σ1 receptors) is 1.5. The Ki at σ2 receptor [1] came to 14 nM; at human σ1 receptors, 21 nM.

For the molecule `COc1cc2c(cc1OC)CN(CCCCn1ccc3cc(F)ccc31)CC2` [Compound 35, 2-(4-(5-Fluoro-1H-indol-1-yl)butyl)-6,7-dimethoxy-1,2,3,4-tetrahydroisoquinoline], the “Selectivity (Ki σ1/Ki σ2)” value on σ2 receptor [1] (Ki σ1 from human σ1 receptors) is reported as 9.7. Besides, the Ki is 12 nM at σ2 receptor [1] and 116 nM on human σ1 receptors.

Turning to `COc1cc2c(cc1OC)CN(CCCCn1ccc3ccc(F)cc31)CC2` [Compound 36, 2-(4-(6-Fluoro-1H-indol-1-yl)butyl)-6,7-dimethoxy-1,2,3,4-tetrahydroisoquinoline], the “Selectivity (Ki σ1/Ki σ2)” value at σ2 receptor [1] (Ki σ1 from human σ1 receptors) is 6.5. Besides, the Ki was 7.1 nM at σ2 receptor [1] and 46 nM at human σ1 receptors.

Turning to `COc1cc2c(cc1OC)CN(CCCCn1ccc3cccc(F)c31)CC2` [Compound 37, 2-(4-(7-Fluoro-1H-indol-1-yl)butyl)-6,7-dimethoxy-1,2,3,4-tetrahydroisoquinoline], the “Selectivity (Ki σ1/Ki σ2)” value at σ2 receptor [1] (Ki σ1 from human σ1 receptors) was 8. Moreover, the Ki at σ2 receptor [1] was 10 nM; at human σ1 receptors, 80 nM.

In the case of `COc1cc2c(cc1OC)CN(CCCCn1ccc3c(F)nccc31)CC2` [Compound 38, 2-[4-(4-Fluor-1H-pyrrolo[3,2-c]pyridin-1-yl)butyl]-6,7-dimethoxy-1,2,3,4-tetrahydroisochinolin], the “Selectivity (Ki σ1/Ki σ2)” value at σ2 receptor [1] (setting [4]) turned out to be 14. The figures for the Ki on σ2 receptor [1] and at guinea pig σ1 receptors were 5.5 nM and 80 nM, respectively.

In the case of `COc1cc2c(cc1OC)CN(CCCCn1ccc3nc(F)ccc31)CC2` [Compound 39, 2-[4-(5-Fluor-1H-pyrrolo[3,2-b]pyridin-1-yl)butyl]-6,7-dimethoxy-1,2,3,4-tetrahydroisochinolin], at σ2 receptor [1] (setting [4]), the “Selectivity (Ki σ1/Ki σ2)” value came out at 32. The values for the Ki on σ2 receptor [1] and at guinea pig σ1 receptors were 3.8 nM and 122 nM, respectively.

As for `COc1cc2c(cc1OC)CN(CCCCn1ccc3cc(F)ncc31)CC2` [Compound 40, 2-[4-(5-Fluor-1H-pyrrolo[2,3-c]pyridin-1-yl)butyl]-6,7-dimethoxy-1,2,3,4-tetrahydroisochinolin], the “Selectivity (Ki σ1/Ki σ2)” value on σ2 receptor [1] (setting [4]) is given as 85. Moreover, the figures for the Ki on σ2 receptor [1] and at guinea pig σ1 receptors were 1 nM and 85 nM, respectively.

`COc1cccc2c1CCCC2CCCN1CCN(C2CCCCC2)CC1` (centres unmarked) [PB28, reference compound]: the “displacement of [18F]RM273 binding on rat brain slices” value on σ2 receptor [2] is “completely displaceable”.

In the case of `Fc1ccc(-n2cc(CCCCN3CCC4(CC3)OCc3ccccc34)c3ccccc32)cc1` [Siramesine, siramesine, reference compound], the “displacement of [18F]RM273 binding on rat brain slices” value at σ2 receptor [2] was “completely displaceable”.

Turning to `COc1cc2c(cc1OC)CN(CCCCNC(=O)c1cc(C)ccc1OCC[18F])CC2` [[^18F]ISO-I], in data set [3], the brain uptake is 0.76 % ID/g.
